Data on 6 molecules can be found in article PMC4754833, “Rilpivirine analogs potently inhibit drug-resistant HIV-1 mutants” (Retrovirology, 2016).

Assay [1] relates to HIV-1 RT mutant V111A. The assay can be described thus: single round infection assay, V111A. Format: cell-based. The note with it: for fold-change of IC50 of the mutant relative to WT: V111A vs WT. How it is done: (§1) The human osteosarcoma cell line, HOS, was obtained from Dr. Richard Schwartz (Michigan State University, East Lansing, MI) and grown in Dulbecco’s modified Eagle’s medium (Invitrogen, Carlsbad, CA) supplemented with 5 % (v/v) fetal bovine serum, 5 % newborn calf serum, and penicillin (50 units/ml) plus streptomycin (50 µg/ml; Quality Biological, Gaithersburg, MD). Virion production and single-round infectivity assays were used to determine antiviral activity (IC50 values) of the compounds as previously described.
(§2) pNLNgoMIVR-ΔEnv.LUC has been described previously. The RT open reading frame was removed from pNLNgoMIVR-ΔEnv.LUC (digestion with SpeI and SalI) and inserted between the SpeI and SalI sites of pBluescript II KS+. Using that construct as the wild-type template, we prepared the following HIV-1 RT mutants using the QuikChange II XL (Stratagene, La Jolla, CA) site-directed mutagenesis protocol kit: L100I, K103N, Y181C, Y188L, H221Y, K103N/Y181C, G190A, G190S, M230L, P236L, L100I/K103N, K103N/P225H, V106A/G190A/F227L, V106A, L234I, V106A/F227L, V106A/L234I, V106A/F227L/L234I, E40K, D67E, K101E, V111A, E138K, M184I, M184V, K101E/M184I, K101E/M184V, E138K/M184I, E138K/M184V, K101P, Y181I, and K101P/V179I. The following sense oligonucleotides were used with matching cognate antisense oligonucleotides (not shown) (Integrated DNA Technologies, Coralville, IA) in the mutagenesis: L100I, 5′-[…]-3′; L100I 2-103, 5′-[…]-3′; K103N, 5′-[…]-3′; Y181C, 5′-[…]-3′; Y188L, 5′-[…]-3′; H221Y, 5′-[…]-3′; G190A, 5′-[…]-3′; G190S, 5′-[…]-3′; P225H, 5′-[…]-3′; F227, 5′-[…]-3′; M230L, 5′-[…]-3′; P236L, 5′-[…]-3′; V106A, 5′-[…]-3′; L234I, 5′-[…]-3′; E40K, 5′-[…]-3′; D67E, 5′-[…]-3′; K101E, 5′-[…]-3′; V111A, 5′-[…]-3′; E138K, 5′-[…]-3′; M184I, 5′-[…]-3′; M184V, 5′-[…]-3′; K101P, 5′-[…]-3′; Y181I, 5′-[…]-3′; K101P/V179I, 5′-[…]-3′. The double mutants K103N/Y181C, K103N/P225H, and L100I/K103N were made using the previously generated K103N mutant and the appropriate oligonucleotides to add the second mutation, Y181C, P225, and L100I respectively. The double mutants V106A/F227L and V106A/L234I were prepared using the previously generated V106A mutant and the appropriate oligonucleotides to add the second mutation, F227L and L234I, respectively. The double mutants K101E/M184I and K101E/M184V were constructed using the previously generated K101E mutant and the appropriate oligonucleotides to add the second mutation, M184I and M184V, respectively. The double mutants E138K/M184I and E138K/M184V were constructed using the previously generated E138K mutant and the appropriate oligonucleotides for the second mutation, M184I and M184V, respectively. The triple mutant V106A/F227L/L234I was made using the previously generated V106A/F227L double mutant and the appropriate oligonucleotides for the third mutation, L234I. The triple mutant V106A/G190A/F227L was constructed in a series of steps using the previously generated V106A mutant and the appropriate oligonucleotides for the second mutation, G190A, to generate the double mutant V106A/G190A, and then the triple mutant was made using double mutant V106A/G190A and oligonucleotides for the third mutation, F227L. […]
(§3) 10.1186/s12977-016-0244-2 The IC50 values (nM) of RPV and the RPV analogs were determined against the NNRTI resistant mutants were measured by using a single round infection assay, n = 4. The concentrations (nM) are measured by reductions in luciferase reporter activity followed by the standard deviations. […]

Assay [2] relates to HIV-1 RT mutant K103N/Y181C. More on the design: method as in PMID 23217210. To be noted: previous study; cited from earlier work.
In assay [3] the test system is HIV-1 RT mutant K101E/M184V. Briefly: single round infection assay, K101E/M184V. It counts as cell-based. The note with it: for fold-change of IC50 of the mutant relative to WT: K101E/M184V vs WT. As for the experimental part: as §1
pNLNgoMIVR-ΔEnv.LUC has been described previously. The RT open reading frame was removed from pNLNgoMIVR-ΔEnv.LUC (digestion with SpeI and SalI) and inserted between the SpeI and SalI sites of pBluescript II KS+. Using that construct as the wild-type template, we prepared the following HIV-1 RT mutants using the QuikChange II XL (Stratagene, La Jolla, CA) site-directed mutagenesis protocol kit: L100I, K103N, Y181C, Y188L, H221Y, K103N/Y181C, G190A, G190S, M230L, P236L, L100I/K103N, K103N/P225H, V106A/G190A/F227L, V106A, L234I, V106A/F227L, V106A/L234I, V106A/F227L/L234I, E40K, D67E, K101E, V111A, E138K, M184I, M184V, K101E/M184I, K101E/M184V, E138K/M184I, E138K/M184V, K101P, Y181I, and K101P/V179I. The following sense oligonucleotides were used with matching cognate antisense oligonucleotides (not shown) (Integrated DNA Technologies, Coralville, IA) in the mutagenesis: L100I, 5′-[…]-3′; L100I 2-103, 5′-[…]-3′; K103N, 5′-[…]-3′; Y181C, 5′-[…]-3′; Y188L, 5′-[…]-3′; H221Y, 5′-[…]-3′; G190A, 5′-[…]-3′; G190S, 5′-[…]-3′; P225H, 5′-[…]-3′; F227, 5′-[…]-3′; M230L, 5′-[…]-3′; P236L, 5′-[…]-3′; V106A, 5′-[…]-3′; L234I, 5′-[…]-3′; E40K, 5′-[…]-3′; D67E, 5′-[…]-3′; K101E, 5′-[…]-3′; V111A, 5′-[…]-3′; E138K, 5′-[…]-3′; M184I, 5′-[…]-3′; M184V, 5′-[…]-3′; K101P, 5′-[…]-3′; Y181I, 5′-[…]-3′; K101P/V179I, 5′-[…]-3′. The double mutants K103N/Y181C, K103N/P225H, and L100I/K103N were made using the previously generated K103N mutant and the appropriate oligonucleotides to add the second mutation, Y181C, P225, and L100I respectively. The double mutants V106A/F227L and V106A/L234I were prepared using the previously generated V106A mutant and the appropriate oligonucleotides to add the second mutation, F227L and L234I, respectively. The double mutants K101E/M184I and K101E/M184V were constructed using the previously generated K101E mutant and the appropriate oligonucleotides to add the second mutation, M184I and M184V, respectively. The double mutants E138K/M184I and E138K/M184V were constructed using the previously generated E138K mutant and the appropriate oligonucleotides for the second mutation, M184I and M184V, respectively. The triple mutant V106A/F227L/L234I was made using the previously generated V106A/F227L double mutant and the appropriate oligonucleotides for the third mutation, L234I. The triple mutant V106A/G190A/F227L was constructed in a series of steps using the previously generated V106A mutant and the appropriate oligonucleotides for the second mutation, G190A, to generate the double mutant V106A/G190A, and then the triple mutant was made using double mutant V106A/G190A and oligonucleotides for the third mutation, F227L. The DNA sequence of each construct was verified by DNA sequence determination. The sequences encoding the mutant RTs were then subcloned into pNLNgoMIVR-ΔEnv.LUC (between the KpnI and SalI sites) to produce the mutant HIV-1 constructs. These DNA sequences were also checked independently by DNA sequence determination.
as §3

Assay [4] concerns HIV-1 RT mutant Y188L. On the set-up: method as in PMID 23217210. To be noted: previous study; cited from earlier work.
In assay [5] the test system is HIV-1 RT mutant M184I. The assay can be described thus: single round infection assay, M184I. Format: cell-based. The note with it: Human immunodeficiency virus 1, M184I; ± SD, n=4. As for the experimental part:
as §1
as §2, with “respectively.” for “respectively. The double mutants E138K/M184I and E138K/M184V were constructed using the previously generated E138K mutant and the appropriate oligonucleotides for the second mutation, M184I and M184V, respectively. The triple mutant V106A/F227L/L234I was made using the previously generated V106A/F227L double mutant and the appropriate oligonucleotides for the third mutation, L234I. The triple mutant V106A/G190A/F227L was constructed in a series of steps using the previously generated V106A mutant and the appropriate oligonucleotides for the second mutation, G190A, to generate the double mutant V106A/G190A, and then the triple mutant was made using double mutant V106A/G190A and oligonucleotides for the third mutation, F227L.”
as §3

Assay [6] has as its system HIV-1 RT mutant M184V. The assay can be described thus: single round infection assay, M184V. Format: cell-based. As for the experimental part: as §1, §2, §3
In assay [7] the test system is HIV-1 RT mutant E138K. On the set-up: method as in PMID 23217210. The note with it: previous study; cited from earlier work.

The IC50 is the concentration needed to halve the response being measured. On to `Cc1cc(/C=C/C#N)cc(C)c1Nc1ccnc(Nc2ccc(C#N)cc2)n1` [RPV, rilpivirine], for which the “fold-change of IC50 of the mutant relative to WT” value in assay [1] was below 2. The IC50 in assay [2] was below 5 nM.

Consider `Cc1cc(/C=C/C#N)cc(C)c1Nc1nc(Nc2ccc(C#N)cc2)ncc1[N+](=O)[O-]` [compound 6], for which the “fold-change of IC50 of the mutant relative to WT” value in assay [3] was found to be 2. The IC50 in assay [4] was below 10 nM.

As to `Cc1cc(/C=C/C#N)cc(C)c1Nc1nc(Nc2ccc(C#N)cc2)ncc1N` [compound 7], the IC50 is below 10 nM in assay [4] and below 5 nM in assay [2].

In the case of `Cc1cc(/C=C/C#N)cc(C)c1Nc1ncc(N)c(Nc2ccc(C#N)cc2)n1` [compound 9], the “fold-change of IC50 of the mutant relative to WT” value in assay [3] is listed as below 2.

Consider `COc1ccc(Cn2cnc3c(Nc4ccc(C#N)cc4)nc(Nc4c(C)cc(/C=C/C#N)cc4C)nc32)cc1` [compound 12], for which the IC50 was 0.76 ± 0.17 nM in assay [1] (Human immunodeficiency virus 1, V111A, ± SD, n=4); 0.69 ± 0.2 nM in assay [5]; 1.6 ± 0.42 nM in assay [6] (Human immunodeficiency virus 1, M184V, ± SD, n=4); 1.8 ± 0.21 nM in assay [3] (Human immunodeficiency virus 1, K101E/M184V, ± SD, n=4); 15 nM in assay [7]. The figures for the “fold-change of IC50 of the mutant relative to WT” value in assay [1], in assay [6] (M184V vs WT) and in assay [3] were below 2, 2 and 3, respectively.

Take `Cc1cc(/C=C/C#N)cc(C)c1Nc1nc(Nc2ccc(C#N)cc2)c2nc[nH]c2n1` [compound 13]: in assay [3], the “fold-change of IC50 of the mutant relative to WT” value amounted to 2. The IC50 in assay [4] was below 10 nM.
